Reference: ChEMBL document CHEMBL3046832, “Synthesis of some sulfonamides, disubstituted sulfonylureas or thioureas and some structurally related variants. A class of promising antitumor agents” (2007)

Legend:
Assay type in all cases: functional
M14 = assay: Cytotoxicity against Homo sapiens (human) M14 cells after 48 hr by SRB assay; conditions: M14, 48 h
LOX IMVI = assay: Cytotoxicity against Homo sapiens (human) LOXIMVI cells after 48 hr by SRB assay
U-251 = assay: Cytotoxicity against Homo sapiens (human) U251 cells after 48 hr by SRB assay; conditions: U-251, 48 h
SNB-75 = assay: Cytotoxicity against Homo sapiens (human) SNB75 cells after 48 hr by SRB assay; conditions: SNB-75, 48 h
Hs-578T = assay: Cytotoxicity against Homo sapiens (human) Hs578T cells after 48 hr by SRB assay
DU-145 = assay: Cytotoxicity against Homo sapiens (human) DU145 cells after 48 hr by SRB assay; conditions: DU-145, 48 h
UO-31 = assay: Cytotoxicity against Homo sapiens (human) UO31 cells after 48 hr by SRB assay; conditions: UO-31, 48 h
RXF 393 = assay: Cytotoxicity against Homo sapiens (human) RXF393 cells after 48 hr by SRB assay; conditions: RXF 393, 48 h
CAKI-1 = assay: Cytotoxicity against Homo sapiens (human) Caki1 cells after 48 hr by SRB assay; conditions: CAKI-1, 48 h
ACHN = assay: Cytotoxicity against Homo sapiens (human) ACHN cells after 48 hr by SRB assay
786-0 = assay: Cytotoxicity against Homo sapiens (human) 786-0 cells after 48 hr by SRB assay; conditions: 786-0, 48 h
[1] = Cytotoxicity against Homo sapiens (human) NCI-ADR-RES cells after 48 hr by SRB assay
SK-OV-3 = assay: Cytotoxicity against Homo sapiens (human) SKOV3 cells after 48 hr by SRB assay; conditions: SK-OV-3, 48 h
IGROV-1 = assay: Cytotoxicity against Homo sapiens (human) IGROV1 cells after 48 hr by SRB assay; conditions: IGROV-1, 48 h
OVCAR-3 = assay: Cytotoxicity against Homo sapiens (human) OVCAR3 cells after 48 hr by SRB assay; conditions: OVCAR-3, 48 h
UACC-62 = assay: Cytotoxicity against Homo sapiens (human) UACC62 cells after 48 hr by SRB assay; conditions: UACC-62, 48 h
SK-MEL-5 = assay: Cytotoxicity against Homo sapiens (human) SK-MEL-5 cells after 48 hr by SRB assay; conditions: SK-MEL-5, 48 h
SK-MEL-28 = assay: Cytotoxicity against Homo sapiens (human) SK-MEL-28 cells after 48 hr by SRB assay; conditions: SK-MEL-28, 48 h
[2] = Cytotoxicity against Homo sapiens (human) breast cancer cells after 48 hr by SRB assay; conditions: Cancer cell lines
[3] = Cytotoxicity against Homo sapiens (human) prostate cancer cells after 48 hr by SRB assay; conditions: Cancer cell lines
[4] = Cytotoxicity against Homo sapiens (human) renal cancer cells after 48 hr by SRB assay; conditions: Cancer cell lines
[5] = Cytotoxicity against Homo sapiens (human) ovarian cancer cells after 48 hr by SRB assay; conditions: Cancer cell lines
[6] = Cytotoxicity against Homo sapiens (human) CNS cancer cells after 48 hr by SRB assay; conditions: Cancer cell lines
[7] = Cytotoxicity against Homo sapiens (human) colon cancer cells after 48 hr by SRB assay; conditions: Cancer cell lines
[8] = Cytotoxicity against Homo sapiens (human) non-small cell lung cancer cells after 48 hr by SRB assay; conditions: Cancer cell lines
NCI-H460 [9] = assay: Cytotoxicity against Homo sapiens (human) NCI-H460 cells assessed as cellular growth after 48 hr by Alamar blue assay; set-up: concentration or dose not given beside the values
[10] = Cytotoxicity against Homo sapiens (human) leukemia cells after 48 hr by SRB assay; conditions: Leukemia cell
SF-268 [11] = assay: Cytotoxicity against Homo sapiens (human) SF268 cells assessed as cellular growth after 48 hr by Alamar blue assay; set-up: concentration or dose not given beside the values
BT-549 = assay: Cytotoxicity against Homo sapiens (human) BT549 cells after 48 hr by SRB assay; conditions: BT-549, 48 h
T47D = assay: Cytotoxicity against Homo sapiens (human) T47D cells after 48 hr by SRB assay
SNB-19 = assay: Cytotoxicity against Homo sapiens (human) SNB19 cells after 48 hr by SRB assay; conditions: SNB-19, 48 h
SW-620 = assay: Cytotoxicity against Homo sapiens (human) SW620 cells after 48 hr by SRB assay; conditions: SW-620, 48 h
SF-268 [12] = assay: Cytotoxicity against Homo sapiens (human) SF268 cells after 48 hr by SRB assay; conditions: SF-268, 48 h
KM12 = assay: Cytotoxicity against Homo sapiens (human) KM12 cells after 48 hr by SRB assay; conditions: KM12, 48 h
HCT-15 = assay: Cytotoxicity against Homo sapiens (human) HCT15 cells after 48 hr by SRB assay; conditions: HCT-15, 48 h
HT-29 = assay: Cytotoxicity against Homo sapiens (human) HT-29 cells after 48 hr by SRB assay; conditions: HT-29, 48 h
NCI-H522 = assay: Cytotoxicity against Homo sapiens (human) NCI-H522 cells after 48 hr by SRB assay; conditions: NCI-H522, 48 h
[13] = Cytotoxicity against Homo sapiens (human) NCI-H322 cells after 48 hr by SRB assay; conditions: NCI-H322, 48 h
NCI-H460 [14] = assay: Cytotoxicity against Homo sapiens (human) NCI-H460 cells after 48 hr by SRB assay; conditions: NCI-H460, 48 h
HOP-92 = assay: Cytotoxicity against Homo sapiens (human) HOP92 cells after 48 hr by SRB assay; conditions: HOP-92, 48 h
EKVX = assay: Cytotoxicity against Homo sapiens (human) EKVX cells after 48 hr by SRB assay
RPMI-8226 = assay: Cytotoxicity against Homo sapiens (human) RPMI8226 cells after 48 hr by SRB assay; conditions: RPMI-8226, 48 h
A549 = assay: Cytotoxicity against Homo sapiens (human) A549 cells after 48 hr by SRB assay; conditions: A549, 48 h
MOLT-4 = assay: Cytotoxicity against Homo sapiens (human) MOLT4 cells after 48 hr by SRB assay; conditions: MOLT-4, 48 h
CCRF-CEM = assay: Cytotoxicity against Homo sapiens (human) CCRF-CEM cells after 48 hr by SRB assay
HCC 2998 = assay: Cytotoxicity against Homo sapiens (human) HCC2998 cells after 48 hr by SRB assay; conditions: HCC 2998, 48 h
NCI-H23 = assay: Cytotoxicity against Homo sapiens (human) NCI-H23 cells after 48 hr by SRB assay; conditions: NCI-H23, 48 h

O=C(NC(=S)NS(=O)(=O)c1ccc(N2N=C3c4ccccc4CC3C2c2cccs2)cc1)c1ccccc1 (configuration not stated)
GI50 (M14): 21.2 µM
GI50 (LOX IMVI): 15.2 µM
GI50 (U-251): 20.1 µM
GI50 (SNB-75): > 100 µM
GI50 (Hs-578T): 16.1 µM
GI50 (DU-145): 28.3 µM
GI50 (UO-31): 41.1 µM
GI50 (RXF 393): 54 µM
GI50 (CAKI-1): 26.1 µM
GI50 (ACHN): > 100 µM
GI50 (786-0): 27.9 µM
GI50 [1]: 18.8 µM
GI50 (SK-OV-3): 90.8 µM
GI50 (IGROV-1): 3.14 µM
GI50 (OVCAR-3): 30.6 µM
GI50 (UACC-62): 14.6 µM
GI50 (SK-MEL-5): 16.9 µM
GI50 (SK-MEL-28): 84 µM
GI50 [2]: 38.6 µM
TGI [2]: 83.7 µM
GI50 [3]: 29 µM
TGI [3]: > 100 µM
GI50 [4]: 45.8 µM
TGI [4]: 87.2 µM
GI50 [5]: 41.9 µM
TGI [5]: 95.3 µM
GI50 [6]: 53.3 µM
TGI [6]: 90.9 µM
GI50 [7]: 35.5 µM
TGI [7]: 85.6 µM
GI50 [8]: 37.9 µM
TGI [8]: 78.9 µM
Activity (NCI-H460 [9]): <=32%
GI50 [10]: 27.9 µM
TGI [10]: 77.2 µM
Activity (SF-268 [11]): <=32%
GI50 (BT-549): 21.6 µM
GI50 (T47D): 69.6 µM
GI50 (SNB-19): 46.3 µM
GI50 (SW-620): 34.8 µM
GI50 (SF-268 [12]): > 100 µM
GI50 (KM12): 28.2 µM
GI50 (HCT-15): 30.2 µM
GI50 (HT-29): 46 µM
GI50 (NCI-H522): 20.5 µM
GI50 [13]: 14.2 µM
GI50 (NCI-H460 [14]): > 100 µM
GI50 (HOP-92): 53 µM
GI50 (EKVX): 19.6 µM
GI50 (RPMI-8226): 29.7 µM
GI50 (A549): 20.3 µM
GI50 (MOLT-4): 26.2 µM
GI50 (CCRF-CEM): 27.9 µM

O=S(=O)(/N=c1\scc(-c2ccccc2)n1-c1ccccc1)c1ccc(N2N=C3c4ccccc4CC3C2c2cccs2)cc1 (configuration not stated)
GI50 (M14): 81.5 µM
GI50 (LOX IMVI): 32.4 µM
GI50 (U-251): 31.2 µM
GI50 (SNB-75): > 100 µM
GI50 (Hs-578T): 60.6 µM
GI50 (DU-145): > 100 µM
GI50 (UO-31): > 100 µM
GI50 (RXF 393): 98.2 µM
GI50 (CAKI-1): 73 µM
GI50 (ACHN): 42.5 µM
GI50 (786-0): 64.2 µM
GI50 [1]: > 100 µM
GI50 (SK-OV-3): > 100 µM
GI50 (OVCAR-3): > 100 µM
GI50 (UACC-62): 60.3 µM
GI50 (SK-MEL-5): 48 µM
GI50 (SK-MEL-28): > 100 µM
GI50 [2]: 61.1 µM
TGI [2]: > 100 µM
GI50 [3]: 87.5 µM
TGI [3]: > 100 µM
GI50 [4]: 72.1 µM
TGI [4]: 96.5 µM
GI50 [5]: 87.2 µM
TGI [5]: > 100 µM
GI50 [6]: 80.9 µM
TGI [6]: > 100 µM
GI50 [7]: 68.1 µM
TGI [7]: 96.9 µM
GI50 [8]: 66.8 µM
TGI [8]: 98.2 µM
Activity (NCI-H460 [9]): <=32%
GI50 [10]: 55 µM
TGI [10]: 90.9 µM
Activity (SF-268 [11]): <=32%
GI50 (BT-549): 47.5 µM
GI50 (T47D): > 100 µM
GI50 (SNB-19): > 100 µM
GI50 (SW-620): 94.2 µM
GI50 (SF-268 [12]): > 100 µM
GI50 (KM12): 32.1 µM
GI50 (HCT-15): 67.4 µM
GI50 (HT-29): 82 µM
GI50 (HCC 2998): 32.8 µM
GI50 (NCI-H522): 61.9 µM
GI50 (NCI-H23): 68 µM
GI50 [13]: 31.4 µM
GI50 (NCI-H460 [14]): 95.1 µM
GI50 (HOP-92): > 100 µM
GI50 (EKVX): 35.5 µM
GI50 (RPMI-8226): 51 µM
GI50 (A549): 57 µM
GI50 (MOLT-4): 19 µM
GI50 (CCRF-CEM): 50.3 µM
